Molecular target: T1, human PPARα (Homo sapiens, UniProt Q07869)
T1 construct: 1.6 kb of DNA fragment including human PPARα gene was collected from the gel; expressed in transfected cells; host or cells: CV-1 cells, transient transfection with pCI-hPPARa, pCI-hRXRa and the reporter pGL3-PPRE3-TK
T1 sequence (Q07869 1-468): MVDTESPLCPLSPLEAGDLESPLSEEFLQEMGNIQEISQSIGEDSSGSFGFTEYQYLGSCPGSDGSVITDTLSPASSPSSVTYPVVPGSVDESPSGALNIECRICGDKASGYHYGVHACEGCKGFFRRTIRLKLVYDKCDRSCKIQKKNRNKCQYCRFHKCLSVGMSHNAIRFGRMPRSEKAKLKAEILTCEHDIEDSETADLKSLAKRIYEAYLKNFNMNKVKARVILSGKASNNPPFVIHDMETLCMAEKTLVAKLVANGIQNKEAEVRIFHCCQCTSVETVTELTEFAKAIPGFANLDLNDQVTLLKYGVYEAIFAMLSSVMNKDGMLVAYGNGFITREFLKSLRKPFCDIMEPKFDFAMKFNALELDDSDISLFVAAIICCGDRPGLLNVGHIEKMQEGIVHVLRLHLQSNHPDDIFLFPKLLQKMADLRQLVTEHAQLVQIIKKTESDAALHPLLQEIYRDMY
T1 sequence (P19793 1-462 partner): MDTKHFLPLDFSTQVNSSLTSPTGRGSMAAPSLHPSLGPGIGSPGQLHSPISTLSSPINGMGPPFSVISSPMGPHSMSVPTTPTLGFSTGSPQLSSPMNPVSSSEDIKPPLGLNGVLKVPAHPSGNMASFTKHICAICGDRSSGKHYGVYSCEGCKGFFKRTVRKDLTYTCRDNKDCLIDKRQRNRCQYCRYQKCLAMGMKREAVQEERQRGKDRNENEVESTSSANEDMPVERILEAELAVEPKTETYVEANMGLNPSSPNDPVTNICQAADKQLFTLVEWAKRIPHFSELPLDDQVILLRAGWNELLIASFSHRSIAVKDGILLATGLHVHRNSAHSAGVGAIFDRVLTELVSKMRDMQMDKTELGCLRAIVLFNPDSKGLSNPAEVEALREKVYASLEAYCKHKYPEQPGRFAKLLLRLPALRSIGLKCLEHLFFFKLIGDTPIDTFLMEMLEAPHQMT
Assay: Human PPARα agonist assay (luciferase reporter in transfected CV-1 cells)
Format: cell-based
Details: at 1 μM test compound alone; 100% = 1 μM stimulant (GW7647) only; CV-1 cells expressing human PPARα and RXRα
Description: CV-1 cells (96 well plate), where human PPARα and RXRα has expressed in the transient transfection of reporter plasmid (see reference 6a) were washed once with PBS (100 μL/well), and then supplemented with 100 μL/well of DMEM medium including 10% of fetal bovine serum to which test compounds at final concentrations of 10 nM, 30 nM, 100 nM, 300 nM, 1 μM, and 3 μM, as well as GW7647 (not limited to GW7647 shown as an example, but may be any PPARα agonist) at a final concentration of 1 nM as a stimulant were added, and incubated in a 5% CO2 incubator at 37° C. for 24 hours. After removing the medium, the CV-1 cells were washed once with PBS (100 μL/well), and supplemented with 60 μL/well of 1× Passive Lysis Buffer (manufactured by Promega Corporation). The CV-1 cells were incubated at room temperature for 30 minutes, stirred, and then by using Dual-Luciferase Reporter Assay System (manufactured by Promega Corporation), luciferase activities of firefly and renilla were measured using 1420 ARVO Multilabel Counter (manufactured by Wallac Oy). Also, the same experiments as that described above were respectively carried out for the cases where only the above-mentioned stimulant (10 nM, 100 nM, 1 μM) were used, where only the above-mentioned test compounds were used, or where neither was used (nonsupplemented), and luciferase activities of firefly and renilla were measured. Values corrected by dividing the firefly luciferase activities by the renilla luciferase activities were calculated as specific activities and used for evaluations. […]
Also, human PPARα agonist activities of the test compounds were evaluated by using a percentage (activity) where the specific activity when nonsupplemented is regarded as 0% and the specific activity in case only 1 μM stimulant was added is regarded as 100%, from the specific activity in case only the test compound is used.
CV-1 cells were cultured in DMEM medium (manufactured by Invitrogen Corporation) including 10% fetal bovine serum (manufactured by Dainippon Pharmaceutical Co., Ltd.) in 225T-Flask (manufactured by Corning Costar). The cells were detached by 0.5 g/L trypsin-0.2 g/L EDTA (ethylene diamine tetra-acetic acid) (manufactured by Invitrogen Corporation), and then suspended in the DMEM medium including 10% fetal bovine serum to a cell concentration of 2×10^5 cells/mL. Thereafter, the cells were seeded into 96 well plate at 2×10^4 cells/0.1 mL/well, incubated in the CO2 incubator at 37° C. overnight, and then the plasmids prepared by the above-mentioned reference 2a, reference 3a, and reference 4a were transfected into cells by using a lipofectamine reagent (manufactured by Invitrogen Corporation) according to the attached manual.
Namely, after CV-1 cells were cultured overnight, the cells were washed with PBS (100 μL/well). Thereafter the cells were incubated for 5 hours at 37° C./5% CO2 in the MEM medium (manufactured by Invitrogen Corporation) including 430 ng/mL of human PPARα expression plasmid (pCI-hPPARa) prepared by the reference 2a, 430 ng/mL of human RXRα expression plasmid (pCI-hRXRa) prepared by the reference 3a, and 140 ng/mL of the reporter plasmid (pGL3-PPRE3-TK) prepared by the reference 4a, 10 ng/mL of phRL-TK vector (manufactured by Promega Corporation) and 2 μL/mL of lipofectamine.

Row | Compound | Human PPARα agonist activities, Activity % (at 1 μM)
1 | COc1cc(Cn2c3ccccc3c3c(OC(C)(C)C(=O)O)cccc32)ccc1OCc1nc(-c2ccco2)oc1C [Example 7, 2-{9-[4-((2-(furan-2-yl)-5-methyl-oxazole-4-yl)methoxy)-3-methoxy-benzyl]-9H-carbazole-4-yloxy-}2-methyl-propionic acid] | 39%
2 | COc1cc(Cn2c3ccccc3c3c(OCCC(C)C(=O)[O-])cccc32)ccc1OCc1nc(-c2ccccc2)oc1C.[Na+] (racemic) [Example 37] | 20%
